# US12201679B2, “Epitope-targeted peptide immunostimulants” (priority 2019, dated 2025)
# “And” between values parts separate entries of the source, which are not always exact repeats. Equal entries are not always repeated. “Also recorded” adds a separate entry of the source. Where two headings read alike, the source gives them in different places. Bridge positions count the residues as written; N and C are the ends. Square brackets hold non-standard residues; d marks the D form. Triazole bridges read from a SMILES are 1,4-linked. Ends that are not written are not given here. Peptide text beside a SMILES is read from it. * marks the point of attachment. Biotin = O=C1N[C@H]2[C@H](CS[C@H]2CCCCC(=O)*)N1; PEG10 = NCCOCCOCCOCCOCCOCCOCCOCCOCCOCCOCCC(=O)O; Lys(N3) = [N-]=[N+]=NCCCC[C@H](N)C(=O)O; Pra = C#CC[C@H](N)C(=O)O
# How the values were obtained:
# [1] = test system: K. pneumoniae cells (strain BAA 1705); assay: Gentamicin protection assay: phagocytosis and opsonophagocytic killing (OPK) by macrophages; format: cell-based, Klebsiella pneumoniae; settings: for colony counts at 1 h, EPI plus anti-DNP antibody: 5 μM AR-PCC, murine BMDMs; for phagocytosis at 1 h, AR-PCC only (no anti-DNP): control samples
# Experimental: It also tested whether DNP-conjugated EPIs could promote the opsonophagocytic killing (OPK) of K. pneumoniae by macrophages. This was tested by using an OPK assay. Briefly, K. pneumoniae cells were treated with EPI and then anti-DNP antibody before being exposed to macrophages for either 6 or 24 hours. During this incubation period, macrophages that recognize K. pneumoniae cells will phagocytose them, and phagocytosed bacteria will remain viable for up to 6 hours, but within 24 hours are rendered inviable by OPK. Thus, macrophages were isolated after 6 and 24 hours of incubation with K. pneumoniae, lysed them, and plated and grew the lysate, which yielded bacterial colonies that reflect the phagocytosis (at 6 hrs) or OPK (at 24 hrs) of bacteria.
# Given that cy(LLFFF)-DNP (SEQ ID NO:5) recruits antibodies to K. pneumoniae surfaces, it was expected that K. pneumoniae opsonized in this manner would be more susceptible to phagocytosis by macrophages. AR-PCC-driven phagocytosis and OPK were quantified by a gentamicin protection assay, as depicted in FIG. 7A. For this assay, K. pneumoniae cells (strain BAA 1705) were treated with cy(LLFFF)-DNP (SEQ ID NO:5), opsonized by anti-DNP antibodies, and then incubated with murine bone-marrow-derived macrophages (BMDMs). BMDMs were subsequently exposed to a solution containing gentamicin, to which K. pneumoniae strain BAA 1705 is susceptible, to kill any extracellular bacteria. Phagocytosed bacteria remain viable inside BMDMs for at least 1 h, yet are rendered inviable after 24 h by OPK (FIG. 13). Macrophages harvested at 1 h and 24 h were lysed and plated to generate bacterial colonies, which were enumerated to quantify phagocytosis and OPK.
# Klebsiella pneumoniae BAA1705 was treated with DNP-PCCs followed by incubation with anti-DNP antibody, as described above in the “Cell-Based ELISAs” section. These opsonized bacteria were then used to infect BMDMs at a multiplicity of infection of 50 for 0.5 h at 37° C. Bacteria were then washed by using RPMI 1640 Media and BMDMs were left in cell culture medium containing gentamicin (100 μg/ml). After 1 h and 24 h BMDMs were washed to remove gentamicin and intracellular bacteria were harvested by lysing BMDMs in RPMI media containing 0.2% Triton X 100. Bacterial CFUs were enumerated by plating onto LB agar. Bacterial counts at 1 h indicated the degree of opsonization while those at 24 h served as a measure of microbicidal activity of macrophages. For these measurements, anti-MrkA antibody and K. pneumoniae antiserum were used at dilutions of 5 μg/mL each.
# [2] = test system: K. pneumoniae cells (strain BAA 2146); assay: Flow cytometry, recruitment of fluorescent anti-DNP antibodies; format: cell-based, Klebsiella pneumoniae; settings: cy(LLFFF)-DNP 1 or 5 μM; cy(HNGPT) 50 μM; plus fluorescent anti-DNP
# Experimental: To test this, cells were incubated with DNP-conjugated EPIs and then fluorescently labeled anti-DNP antibody (Alexafluor488), and subsequently quantified the fluorescence of cells by using flow cytometry.
# Cytometry measurements were gated for single cells, and each distribution comprises >18,000 cells.
# Cytometry measurements were used to quantify AR-PCC-driven opsonization and opsonophagocytic killing of K. pneumoniae cells. For these measurements, K. pneumoniae cells were cultured in G-CAA medium overnight, washed, incubated with DNP-tagged AR-PCC at a desired concentration, washed, incubated with anti-DNP antibody conjugated with Alexafluor488, washed, then resuspended in PBS media. The samples were stored at 4° C. for 2 d before cytometry measurements were performed. The cytometer was calibrated by using Rainbow fluorescent beads (3.5 μm diameter) 3.5 m from BD (559123), which aided identification of single K. pneumoniae cells in subsequent measurements. Samples were excited with 488 nm light and the fluorescence emission at 530 nm was measured. Sample with no Alexaflour488 stain was used as fluorescent minus one (FMO) control for gating of DNP+ population. FACS data was analyzed on FlowJo v10 software, and the resulting histograms each include fluorescence data from >18,000 cells for strain BAA 2146 (FIG. 4B) and >4,000 cells for strain BAA 1705 (data not shown).
# [3] = test system: K. pneumoniae (strains BAA 1705 & 2146); assay: Whole-cell ELISA, biotinylated PCC, multidrug-resistant K. pneumoniae; format: cell-based, Klebsiella pneumoniae; settings: biotinylated PCC at 5 μM, FIG. 5C
# Experimental: Detection of the binding of biotinylated PCCs to bacterial surface was performed as follows. 10^8 bacteria from a culture grown overnight were used for each test. […] After washing thrice with PBS to remove unbound PCCs, bacteria were incubated with Streptavidin-HRP (1:1000) for 1 h at 37° C. Bacteria were washed thoroughly and the TMB reagent was added until visible coloration was observed. The reaction was quenched using 2N H2SO4 and absorbance was measured at 450 nm.
# [4] = Isocratic point, elution from C18 prep-scale column; format: physicochemical; settings: elution from C18 column
# Experimental: PCC compounds were purified on a Waters Autopurification system, which isolated compounds based on MS peaks corresponding to protonated [M+1H]^+ and [M+2H]^2+, and/or sodium adducts [M+Na]^+ and [M+2Na]^2+. The isocratic points of PCCs were determined based on the elution of the compound from a C18 prep-scale column. Synthetic epitopes were either purified on the Waters Autopurification System, or by semi-preparative HPLC and then using matrix-assisted laser desorption/ionization mass spectroscopy to identify fractions with the desired m/z ratio. The resulting peptides were lyophilized, the yield determined by mass difference or UV-visible absorbance, and resuspended at a concentration of up to 10 mM peptide in DMSO. Peptides were stored at −80° C. before thawing for each use.
# [5] = biological target: full-length recombinant MrkA protein (Klebsiella pneumoniae, UniProt P12267); format: binding
# Text: HPraGly is present before X1 in each peptide and Az4 follows X5 in each peptide.
# Chain of full-length recombinant MrkA protein (P12267 23-202): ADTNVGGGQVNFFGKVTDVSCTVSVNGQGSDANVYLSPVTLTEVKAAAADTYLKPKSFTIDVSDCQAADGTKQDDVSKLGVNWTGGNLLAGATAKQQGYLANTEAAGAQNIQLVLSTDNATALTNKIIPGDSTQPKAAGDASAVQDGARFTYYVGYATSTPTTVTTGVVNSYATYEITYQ
compound,measurement,setting,value
"cy(LLFFF)+R6-DNP (LLFFFRRRRRR; not fully specified (C-terminus); printed as cy(LLFFF)+R6-DNP; also: cyclic over residues 1-5, ring closure not given here)","colony counts at 1 h, EPI plus anti-DNP antibody",[1]; 1 h,"85,000 CFU"
same,"phagocytosis at 1 h, AR-PCC only (no anti-DNP)",[1]; 1 h,None of these treatments elicited phagocytosis above basal levels
cy(LLFFA)-DNP (not fully specified (bridges); printed as cy(LLFFA)-DNP; also: DNP label),"phagocytosis at 1 h, DNP-tagged AR-PCC plus anti-DNP (words)","[1]; 1 h, FIG. 7B",None of these treatments elicited phagocytosis above basal levels
same,"phagocytosis at 1 h, AR-PCC only (no anti-DNP)",[1]; 1 h,None of these treatments elicited phagocytosis above basal levels
cy(LLFFF)-DNP (cyclo(LLFFF); also: DNP label),"colony counts at 1 h, EPI plus anti-DNP antibody",[1]; 1 h,"89,000 CFU and 85,000 CFU"
same,"phagocytosis at 1 h, AR-PCC only (no anti-DNP)",[1]; 1 h,None of these treatments elicited phagocytosis above basal levels
same,level of phagocytosis lower than K. pneumoniae antiserum and anti-MrkA treatment,"[1]; plus anti-DNP, 1 h",about 15%
same,fluorescence of cells,[2],much higher fluorescence
"cy(HNGPT) (not fully specified (bridges); printed as cy(HNGPT); also: cyclic, closure not given here) [reference compound]","CFU, DNP-conjugated EPI plus anti-DNP, macrophages harvested at 6 hrs",[1]; 6 hrs,almost identical CFU count
same,"cell counts, DNP-conjugated EPI only (no antibody), macrophages harvested at 6 hrs",[1]; 6 hrs,"~35,000"
same,fluorescence of cells,[2],Slightly greater fluorescence
same,"whole-cell ELISA signal, K. pneumoniae BAA 1705 and BAA 2146",[3],comparably lower signal; also recorded: no or minimal binding above baseline
CC(C)C[C@@H]1NC(=O)[C@@H](NC(=O)CCOCCOCCOCCOCCOCCOCCOCCOCCOCCOCCNC(=O)CCCC[C@@H]2SC[C@@H]3NC(=O)N[C@@H]32)Cc2cn(nn2)CCCC[C@@H](C(N)=O)NC(=O)[C@H](Cc2ccccc2)NC(=O)[C@H](Cc2ccccc2)NC(=O)[C@H](Cc2ccccc2)NC1=O [compound 8] ({Biotin-PEG10}-[Pra]LFFF[Lys(N3)]-NH2; triazole 1-6),Isocratic point (%),[4],61.84%
same,Relative affinity (ratio of ELISA signal versus cy(LLFFF)),"[5]; ELISA 3, [MrkA] 50 nM",0.46
CC(C)C[C@@H]1NC(=O)[C@@H](NC(=O)CCOCCOCCOCCOCCOCCOCCOCCOCCOCCOCCNC(=O)CCCC[C@@H]2SC[C@@H]3NC(=O)N[C@@H]32)Cc2cn(nn2)CCCC[C@@H](C(N)=O)NC(=O)[C@H](Cc2ccccc2)NC(=O)[C@H](Cc2ccccc2)NC(=O)[C@H](Cc2ccccc2)NC(=O)[C@H](C)NC1=O [compound 3] ({Biotin-PEG10}-[Pra]LAFFF[Lys(N3)]-NH2; triazole 1-7),Isocratic point (%),[4],66.00%
same,Relative affinity (ratio of ELISA signal versus cy(LLFFF)),"[5]; ELISA 2, [MrkA] 25 nM",0.26
CC(C)C[C@@H]1NC(=O)[C@@H](NC(=O)CCOCCOCCOCCOCCOCCOCCOCCOCCOCCOCCNC(=O)[C@H](CCCNC(=N)N)NC(=O)[C@H](CCCNC(=N)N)NC(=O)[C@H](CCCNC(=N)N)NC(=O)[C@H](CCCNC(=N)N)NC(=O)[C@H](CCCNC(=N)N)NC(=O)[C@H](CCCNC(=N)N)NC(=O)CCOCCOCCOCCOCCOCCOCCOCCOCCOCCOCCNC(=O)CCCC[C@@H]2SC[C@@H]3NC(=O)N[C@@H]32)Cc2cn(nn2)CCCC[C@@H](C(N)=O)NC(=O)[C@H](Cc2ccccc2)NC(=O)[C@H](Cc2ccccc2)NC(=O)[C@H](Cc2ccccc2)NC(=O)[C@H](CC(C)C)NC1=O [compound 17] ({Biotin-PEG10}-RRRRRR[PEG10][Pra]LLFFF[Lys(N3)]-NH2; triazole 8-14),Isocratic point (%),[4],39.82%
same,Relative affinity (ratio of ELISA signal versus cy(LLFFF)),"[5]; ELISA 5, [MrkA] 25 nM",1.22
CC(C)C[C@@H]1NC(=O)[C@@H](NC(=O)CCOCCOCCOCCOCCOCCOCCOCCOCCOCCOCCNC(=O)CCCC[C@@H]2SC[C@@H]3NC(=O)N[C@@H]32)Cc2cn(nn2)CCCC[C@@H](C(N)=O)NC(=O)[C@H](Cc2ccccc2)NC(=O)[C@H](Cc2ccccc2)NC(=O)[C@H](CC(C)C)NC1=O [compound 21] ({Biotin-PEG10}-[Pra]LLFF[Lys(N3)]-NH2; triazole 1-6),Isocratic point (%),[4],64.99%
same,Relative affinity (ratio of ELISA signal versus cy(LLFFF)),"[5]; ELISA 6, [MrkA] 25 nM",0.14
CC(C)C[C@@H]1NC(=O)[C@H](C)NC(=O)[C@@H](NC(=O)CCOCCOCCOCCOCCOCCOCCOCCOCCOCCOCCNC(=O)CCCC[C@@H]2SC[C@@H]3NC(=O)N[C@@H]32)Cc2cn(nn2)CCCC[C@@H](C(N)=O)NC(=O)[C@H](Cc2ccccc2)NC(=O)[C@H](Cc2ccccc2)NC(=O)[C@H](Cc2ccccc2)NC1=O [compound 2] ({Biotin-PEG10}-[Pra]ALFFF[Lys(N3)]-NH2; triazole 1-7),Isocratic point (%),[4],65.55%
same,Relative affinity (ratio of ELISA signal versus cy(LLFFF)),"[5]; ELISA 2, [MrkA] 25 nM",0.53
NC(=O)[C@@H]1CCCCn2cc(nn2)C[C@H](NC(=O)CCOCCOCCOCCOCCOCCOCCOCCOCCOCCOCCNC(=O)CCCC[C@@H]2SC[C@@H]3NC(=O)N[C@@H]32)C(=O)N[C@@H](Cc2ccccc2)C(=O)N[C@@H](Cc2ccccc2)C(=O)N[C@@H](Cc2ccccc2)C(=O)N1 [compound 23] ({Biotin-PEG10}-[Pra]FFF[Lys(N3)]-NH2; triazole 1-5),Isocratic point (%),[4],60.27%
same,Relative affinity (ratio of ELISA signal versus cy(LLFFF)),"[5]; ELISA 6, [MrkA] 25 nM",0.14
CC(C)C[C@@H]1NC(=O)[C@@H](NC(=O)CCOCCOCCOCCOCCOCCOCCOCCOCCOCCOCCNC(=O)CCCC[C@@H]2SC[C@@H]3NC(=O)N[C@@H]32)Cc2cn(nn2)CCCC[C@@H](C(N)=O)NC(=O)[C@H](Cc2ccccc2)NC(=O)[C@H](CC(C)C)NC1=O [compound 22] ({Biotin-PEG10}-[Pra]LLF[Lys(N3)]-NH2; triazole 1-5),Isocratic point (%),[4],56.45%
same,Relative affinity (ratio of ELISA signal versus cy(LLFFF)),"[5]; ELISA 6, [MrkA] 25 nM",0.09
